Columns and labels:
K562 = assay: Growth inhibition of human K562 cells incubated for 48 hrs by sulforhodamine B assay; assay type: functional, cell-based; details: K562, 48 h
NCI-H522 = assay: Growth inhibition of human NCI-H522 cells incubated for 48 hrs by sulforhodamine B assay; assay type: functional, cell-based; details: NCI-H522, 48 h
COLO 205 = assay: Growth inhibition of human COLO205 cells incubated for 48 hrs by sulforhodamine B assay; assay type: functional, cell-based; details: COLO 205, 48 h
SN12C = assay: Growth inhibition of human SN12C cells incubated for 48 hrs by sulforhodamine B assay; assay type: functional, cell-based
A549 = assay: Growth inhibition of human A549/ATCC cells assessed as cell growth at 0.01 uM incubated for 48 hrs by sulforhodamine B assay relative to control; assay type: functional; details: A549, 48 h, read-out: Activity
NCI-H23 = assay: Growth inhibition of human NCI-H23 cells assessed as cell growth at 0.01 uM incubated for 48 hrs by sulforhodamine B assay relative to control; assay type: functional; details: NCI-H23, 48 h, read-out: Activity
SNB-19 = assay: Growth inhibition of human SNB19 cells assessed as cell growth at 0.01 uM incubated for 48 hrs by sulforhodamine B assay relative to control; assay type: functional; details: SNB-19, 48 h, read-out: Activity
MDA-MB-435 [1] = assay: Growth inhibition of human MDA-MB-435 cells assessed as cell growth at 0.01 uM incubated for 48 hrs by sulforhodamine B assay relative to control; assay type: functional; details: MDA-MB-435, 48 h, read-out: Activity
SK-MEL-2 = assay: Growth inhibition of human SK-MEL-2 cells assessed as cell growth at 0.01 uM incubated for 48 hrs by sulforhodamine B assay relative to control; assay type: functional; details: SK-MEL-2, 48 h, read-out: Activity
OVCAR-8 = assay: Growth inhibition of human OVCAR8 cells assessed as cell growth at 0.01 uM incubated for 48 hrs by sulforhodamine B assay relative to control; assay type: functional; details: OVCAR-8, 48 h, read-out: Activity
SK-OV-3 = assay: Growth inhibition of human SKOV3 cells assessed as cell growth at 0.01 uM incubated for 48 hrs by sulforhodamine B assay relative to control; assay type: functional; details: SK-OV-3, 48 h, read-out: Activity
A498 = assay: Growth inhibition of human A498 cells assessed as cell growth at 0.01 uM incubated for 48 hrs by sulforhodamine B assay relative to control; assay type: functional; details: A498, 48 h, read-out: Activity
BT-549 [2] = assay: Growth inhibition of human BT549 cells assessed as cell growth at 0.01 uM incubated for 48 hrs by sulforhodamine B assay relative to control; assay type: functional; details: BT-549, 48 h, read-out: Activity
SR = assay: Growth inhibition of human SR cells assessed as cell growth at 0.1 uM incubated for 48 hrs by sulforhodamine B assay relative to control; assay type: functional; details: read-out: Activity
KM12 = assay: Growth inhibition of human KM12 cells assessed as cell growth at 0.1 uM incubated for 48 hrs by sulforhodamine B assay relative to control; assay type: functional; details: KM12, 48 h, read-out: Activity
NCI/ADR-RES = assay: Growth inhibition of human NCI/ADR-RES cells assessed as cell growth at 0.1 uM incubated for 48 hrs by sulforhodamine B assay relative to control; assay type: functional; details: read-out: Activity
DU-145 = assay: Growth inhibition of human DU145 cells assessed as cell growth at 0.1 uM incubated for 48 hrs by sulforhodamine B assay relative to control; assay type: functional; details: DU-145, 48 h, read-out: Activity
MDA-MB-231 = assay: Growth inhibition of human MDA-MB-231 cells assessed as cell growth at 0.1 uM incubated for 48 hrs by sulforhodamine B assay relative to control; assay type: functional; details: MDA-MB-231, 48 h, read-out: Activity
Hs-578T = assay: Growth inhibition of human Hs578T cells assessed as cell growth at 0.1 uM incubated for 48 hrs by sulforhodamine B assay relative to control; assay type: functional; details: read-out: Activity
MDA-MB-468 = assay: Growth inhibition of human MDA-MB-468 cells assessed as cell growth at 0.1 uM incubated for 48 hrs by sulforhodamine B assay relative to control; assay type: functional; details: MDA-MB-468, 48 h, read-out: Activity
NCI-H226 = assay: Growth inhibition of human NCI-H226 cells assessed as cell growth at 1 uM incubated for 48 hrs by sulforhodamine B assay relative to control; assay type: functional; details: NCI-H226, 48 h, read-out: Activity
SF-539 = assay: Growth inhibition of human SF539 cells assessed as cell growth at 1 uM incubated for 48 hrs by sulforhodamine B assay relative to control; assay type: functional; details: SF-539, 48 h, read-out: Activity
LOX IMVI = assay: Growth inhibition of human LOXIMVI cells assessed as cell growth at 1 uM incubated for 48 hrs by sulforhodamine B assay relative to control; assay type: functional; details: read-out: Activity
SK-MEL-5 = assay: Growth inhibition of human SK-MEL-5 cells assessed as cell growth at 1 uM incubated for 48 hrs by sulforhodamine B assay relative to control; assay type: functional; details: SK-MEL-5, 48 h, read-out: Activity
BT-549 [3] = assay: Growth inhibition of human BT549 cells assessed as cell growth at 1 uM incubated for 48 hrs by sulforhodamine B assay relative to control; assay type: functional; details: BT-549, 48 h, read-out: Activity
HT-29 = assay: Growth inhibition of human HT-29 cells assessed as cell growth at 100 uM incubated for 48 hrs by sulforhodamine B assay relative to control; assay type: functional; details: HT-29, 48 h, read-out: Activity
SW-620 = assay: Growth inhibition of human SW620 cells assessed as cell growth at 100 uM incubated for 48 hrs by sulforhodamine B assay relative to control; assay type: functional; details: SW-620, 48 h, read-out: Activity
SF-268 = assay: Growth inhibition of human SF268 cells assessed as cell growth at 100 uM incubated for 48 hrs by sulforhodamine B assay relative to control; assay type: functional; details: SF-268, 48 h, read-out: Activity
MDA-MB-435 [4] = assay: Growth inhibition of human MDA-MB-435 cells assessed as cell growth at 100 uM incubated for 48 hrs by sulforhodamine B assay relative to control; assay type: functional; details: MDA-MB-435, 48 h, read-out: Activity
IGROV-1 = assay: Growth inhibition of human IGROV1 cells assessed as cell growth at 100 uM incubated for 48 hrs by sulforhodamine B assay relative to control; assay type: functional; details: IGROV-1, 48 h, read-out: Activity
[5] = read-out: LC50 (the source's name)
[6] = read-out: pLC50 (the source's name) (converted)

`O=C(Nc1cccc(-n2cc(-c3ccncc3)c(-c3cc(O)cc(Cl)c3)n2)c1)Nc1ccc(Cl)c(Cl)c1` gave a GI50 (K562; read-out: GI50) of 2560 nM, an LC50 (K562; read-out: LC50) of over 100000 nM and a TGI (K562; read-out: TGI) of over 100000 nM. For the same compound, the GI50 (K562; read-out: pGI50 (converted)) was 2570 nM, the LC50 (K562; read-out: pLC50 (converted)) was over 100000 nM and the TGI (K562; read-out: pTGI (converted)) was over 100000 nM. The GI50 (NCI-H522; read-out: GI50) was 1100 nM, the CC50 (NCI-H522; [5]) was 5990 nM and the TGI (NCI-H522; read-out: TGI) was 31400 nM. For the same compound, the GI50 (NCI-H522; read-out: pGI50 (converted)) was 1100 nM, the CC50 (NCI-H522; [6]) was 8910 nM and the TGI (NCI-H522; read-out: pTGI (converted)) was 3160 nM. It also gave a GI50 (COLO 205; read-out: GI50) of 1960 nM, a CC50 (COLO 205; [5]) of 7290 nM and a TGI (COLO 205; read-out: TGI) of 37800 nM. The GI50 (COLO 205; read-out: pGI50 (converted)) was 1950 nM, the CC50 (COLO 205; [6]) was 7240 nM and the TGI (COLO 205; read-out: pTGI (converted)) was 3800 nM. The GI50 (SN12C; read-out: GI50) was 2780 nM, the LC50 (SN12C; read-out: LC50) was over 100000 nM and the TGI (SN12C; read-out: TGI) was 10100 nM. It also gave a GI50 (SN12C; read-out: pGI50 (converted)) of 2750 nM, an LC50 (SN12C; read-out: pLC50 (converted)) of over 100000 nM and a TGI (SN12C; read-out: pTGI (converted)) of 18200 nM. It also gave a growth at 0.01 µM (A549) of 96%, a growth at 0.01 µM (NCI-H23) of 96% and a growth at 0.01 µM (SNB-19) of 97%. For the same compound, the growth at 0.01 µM (MDA-MB-435 [1]) was 96%, the growth at 0.01 µM (SK-MEL-2) was 59% and the growth at 0.01 µM (OVCAR-8) was 102%. For the same compound, the growth at 0.01 µM (SK-OV-3) was 108%, the growth at 0.01 µM (A498) was 57% and the growth at 0.01 µM (BT-549 [2]) was 94%. It also gave a growth at 0.1 µM (SR) of 90%, a growth at 0.1 µM (KM12) of 100% and a growth at 0.1 µM (NCI/ADR-RES) of 105%. For the same compound, the growth at 0.1 µM (DU-145) was 104%, the growth at 0.1 µM (MDA-MB-231) was 85% and the growth at 0.1 µM (Hs-578T) was 92%. The growth at 0.1 µM (MDA-MB-468) was 85%, the growth at 1 µM (NCI-H226) was 96% and the growth at 1 µM (SF-539) was 72%. The growth at 1 µM (LOX IMVI) was 83%, the growth at 1 µM (SK-MEL-5) was 86% and the growth at 1 µM (BT-549 [3]) was 89%. It also gave a growth at 100 µM (HT-29) of -70%, a growth at 100 µM (SW-620) of -36% and a growth at 100 µM (SF-268) of -11%. The growth at 100 µM (MDA-MB-435 [4]) was -45% and the growth at 100 µM (IGROV-1) was -12%.
For `COc1cc(Cl)cc(-c2nn(-c3cccc(NC(=O)Nc4cc(C(F)(F)F)cc(C(F)(F)F)c4)c3)cc2-c2ccncc2)c1`, the IC50 (K562) was 350 nM, the GI50 (K562; read-out: GI50) was 351 nM and the LC50 (K562; read-out: LC50) was over 100000 nM. It also gave a TGI (K562; read-out: TGI) of 5840 nM, a GI50 (K562; read-out: pGI50 (converted)) of 355 nM and an LC50 (K562; read-out: pLC50 (converted)) of over 100000 nM. It also gave a TGI (K562; read-out: pTGI (converted)) of 5890 nM, an IC50 (NCI-H522) of 350 nM and a GI50 (NCI-H522; read-out: GI50) of 353 nM. The TGI (NCI-H522; read-out: TGI) was 1760 nM, the GI50 (NCI-H522; read-out: pGI50 (converted)) was 355 nM and the CC50 (NCI-H522; [6]) was 8910 nM. The TGI (NCI-H522; read-out: pTGI (converted)) was 1780 nM, the IC50 (COLO 205) was 450 nM and the GI50 (COLO 205; read-out: GI50) was 448 nM. The TGI (COLO 205; read-out: TGI) was 1880 nM, the GI50 (COLO 205; read-out: pGI50 (converted)) was 447 nM and the CC50 (COLO 205; [6]) was 6920 nM. The TGI (COLO 205; read-out: pTGI (converted)) was 1860 nM, the IC50 (SN12C) was 390 nM and the GI50 (SN12C; read-out: GI50) was 356 nM. For the same compound, the LC50 (SN12C; read-out: LC50) was 29.5 nM, the TGI (SN12C; read-out: TGI) was 1980 nM and the GI50 (SN12C; read-out: pGI50 (converted)) was 389 nM. The LC50 (SN12C; read-out: pLC50 (converted)) was 29500 nM, the TGI (SN12C; read-out: pTGI (converted)) was 2000 nM and the growth at 0.01 µM (A549) was 100%. The growth at 0.01 µM (NCI-H23) was 94%, the growth at 0.01 µM (SNB-19) was 89% and the growth at 0.01 µM (MDA-MB-435 [1]) was 97%. It also gave a growth at 0.01 µM (SK-MEL-2) of 103%, a growth at 0.01 µM (OVCAR-8) of 99% and a growth at 0.01 µM (SK-OV-3) of 100%. For the same compound, the growth at 0.01 µM (A498) was 64%, the growth at 0.01 µM (BT-549 [2]) was 94% and the growth at 0.1 µM (SR) was 92%. The growth at 0.1 µM (KM12) was 98%, the growth at 0.1 µM (NCI/ADR-RES) was 95% and the growth at 0.1 µM (DU-145) was 95%. For the same compound, the growth at 0.1 µM (MDA-MB-231) was 90%, the growth at 0.1 µM (Hs-578T) was 95% and the growth at 0.1 µM (MDA-MB-468) was 89%. For the same compound, the growth at 1 µM (NCI-H226) was 41%, the growth at 1 µM (SF-539) was 59% and the growth at 1 µM (SK-MEL-5) was 50%. The growth at 1 µM (BT-549 [3]) was 54%, the growth at 100 µM (HT-29) was -96% and the growth at 100 µM (SW-620) was -72%. For the same compound, the growth at 100 µM (SF-268) was -88%, the growth at 100 µM (MDA-MB-435 [4]) was -81% and the growth at 100 µM (IGROV-1) was -42%.

Reference: ChEMBL document CHEMBL4308841, “Synthesis, in vitro antiproliferative activity, and kinase inhibitory effects of pyrazole-containing diarylureas and diarylamides” (Eur J Med Chem, 2018)
